Data as given in patent US20090324760A1, “Hair tonic” (priority 2005, published 2009).

Tested on: C3H mice
Assay: Hair-growth test on shaved back of C3H mice
Format: in vivo
Conditions: 0.2 mL per mouse twice a day for two weeks, measured on sixteenth day
Procedure: The hair-growth promoting effect of the hair tonic of the invention was evaluated according to the following hair-growth test. Commercially available acteoside (manufactured by ChromaDex Corp.) or the crude acteoside according to example 1 was dissolved in a 55% wt aqueous ethanol solution. Comparative example 1 was carried out using this aqueous ethanol solution as the reference.
C3H mice (males of 8-week age, average weight 35 g, a group of 10 mice) were used as test animals. Their back (2 cm×4 cm) was shaved to prepare a test area and from the following day onwards, each test sample (0.2 mL per mouse) was applied twice a day(morning and evening) for two weeks. On the sixteenth day, a picture of the test area was taken with a video camera, and hair-growth was measured with an image analyzer. The hair-growth promoting effect was evaluated as hair-growth rate (%) calculated according to the equation reported below.
[Hair-growth rate (%)]=[area of the hair-growth portion]/[test area]×100

Acteoside [Example 2]
Hair growth rate (sample concentration 0.1 % by weight in 55% wt aqueous ethanol): 61.05%
Hair growth rate (sample concentration 0.2 % by weight in 55% wt aqueous ethanol): 65.02%
